Results taken from ChEMBL document CHEMBL5331093, “Identification of "dual-site"-binding diarylpyrimidines targeting both NNIBP and the NNRTI adjacent site of the HIV-1 reverse transcriptase” (Eur J Med Chem, 2023).
pEC50, pIC50: −log10 of the molar value. Converted amounts (≈) assume the structure as drawn.

Tests used:
[1] = Selectivity index, ratio of CC50 cytotoxicity against human MT4 cells to EC50 for anti-HIV activity against NNRTI-resistant HIV-1 RES056 harboring RT K103N/Y181C double mutant infected in human MT4 cells; assay type: toxicity, cell-based; conditions: read-out: Ratio CC50/EC50
[2] = tested on: Human immunodeficiency virus 1; experiment: Anti-HIV activity against wild type HIV-1 IIIB infected in human MT4 cells assessed as inhibition of virus-induced cytopathic effect incubated for 5 days by MTT assay; assay type: functional, organism-based; conditions: Human immunodeficiency virus 1, IIIB, MT4, 120 h
[3] = Resistance factor, ratio of EC50 for anti-HIV activity against NNRTI-resistant HIV-1 RES056 harboring RT K103N/Y181C double mutant infected in human MT4 cells to EC50 for anti-HIV activity against wild type HIV-1 IIIB infected in human MT4 cells; assay type: functional
[4] = tested on: Human immunodeficiency virus 1; experiment: Anti-HIV activity against NNRTI-resistant HIV-1 harboring RT L100I mutant infected in human MT4 cells assessed as inhibition of virus-induced cytopathic effect incubated for 5 days by MTT assay; assay type: functional, organism-based; conditions: Human immunodeficiency virus 1, MT4, 120 h
[5] = Cytotoxicity against human MT4 cells assessed as reduction in cell viability incubated for 5 days by MTT assay; assay type: toxicity, cell-based; conditions: time 5 day
[6] = tested on: Human immunodeficiency virus 1; experiment: Anti-HIV activity against NNRTI-resistant HIV-1 harboring RT K103N mutant infected in human MT4 cells assessed as inhibition of virus-induced cytopathic effect incubated for 5 days by MTT assay; assay type: functional, organism-based; conditions: Human immunodeficiency virus 1, MT4, 120 h
[7] = Selectivity index, ratio of CC50 cytotoxicity against human MT4 cells to EC50 for anti-HIV activity against wild type HIV-1 IIIB infected in human MT4 cells; assay type: toxicity, cell-based; conditions: read-out: Ratio CC50/EC50
[8] = tested on: Human immunodeficiency virus 1; experiment: Anti-HIV activity against NNRTI-resistant HIV-1 harboring RT Y188L mutant infected in human MT4 cells assessed as inhibition of virus-induced cytopathic effect incubated for 5 days by MTT assay; assay type: functional, organism-based; conditions: Human immunodeficiency virus 1, MT4, 120 h
[9] = tested on: Human immunodeficiency virus 1; experiment: Anti-HIV activity against NNRTI-resistant HIV-1 harboring RT Y181C mutant infected in human MT4 cells assessed as inhibition of virus-induced cytopathic effect incubated for 5 days by MTT assay; assay type: functional, organism-based; conditions: Human immunodeficiency virus 1, MT4, 120 h
[10] = tested on: Human immunodeficiency virus 1; experiment: Anti-HIV activity against NNRTI-resistant HIV-1 harboring RT E138K mutant infected in human MT4 cells assessed as inhibition of virus-induced cytopathic effect incubated for 5 days by MTT assay; assay type: functional, organism-based; conditions: Human immunodeficiency virus 1, MT4, 120 h
[11] = tested on: Human immunodeficiency virus 1; experiment: Anti-HIV activity against NNRTI-resistant HIV-1 harboring RT F227L/V106A double mutant infected in human MT4 cells assessed as inhibition of virus-induced cytopathic effect incubated for 5 days by MTT assay; assay type: functional, organism-based; conditions: Human immunodeficiency virus 1, MT4, 120 h
[12] = tested on: Human immunodeficiency virus 1; experiment: Anti-HIV activity against NNRTI-resistant HIV-1 RES056 harboring RT K103N/Y181C double mutant infected in human MT4 cells assessed as inhibition of virus-induced cytopathic effect incubated for 5 days by MTT assay; assay type: functional, organism-based; conditions: Human immunodeficiency virus 1, RES056, MT4, 120 h
[13] = molecular target: Human immunodeficiency virus type 1 reverse transcriptase (Human immunodeficiency virus 1, UniProt Q72547); experiment: Inhibition of wild type recombinant HIV-1 reverse transcriptase assessed as reduction of biotin-dUTP incorporation into […] using ABTS as substrate incubated for 1 hrs by ELISA analysis
[14] = Aqueous solubility of the compound at pH 7.4; assay type: physicochemical; conditions: aqueous medium
[15] = Aqueous solubility of the compound at pH 2.0; assay type: physicochemical; conditions: aqueous medium
[16] = Aqueous solubility of the compound at pH 7.0; assay type: physicochemical; conditions: aqueous medium

Compound	selectivity ratio [1]	pEC50 [2]	Ratio EC50 [3]	pEC50 [4]	CC50 at 120 h [5] [nM]	pEC50 [6]	selectivity ratio [7]	pEC50 [8]	pEC50 [9]	pEC50 [10]	pEC50 [11]	pEC50 [12]	pIC50 [13]	solubility [14] [µg/mL]	solubility [15] [µg/mL]	solubility [16] [µg/mL]
C#CCNC(=O)C#Cc1cnc(Nc2ccc(C#N)cc2)nc1Oc1c(C)cc(C#N)cc1C	9	8.21	132	6.90	7020	7.82	1140	6.81	7.06	7.57	6.34	6.09				
CCOC(=O)C#Cc1cnc(Nc2ccc(C#N)cc2)nc1Oc1c(C)cc(C#N)cc1C	260	8.36	31	7.96	34500	8.28	7940	7.99	7.87	8.01	7.80	6.88	6.99			
Cc1cc(C#N)cc(C)c1Oc1nc(Nc2ccc(C#N)cc2)ncc1C#CC(=O)NCCCN1CCOCC1	17	7.89	268		59200		4600					5.46				
COC(=O)C1CCC(NC(=O)C#Cc2cnc(Nc3ccc(C#N)cc3)nc2Oc2c(C)cc(C#N)cc2C)CC1 (centres undefined)	17	8.20	104	6.88	11500	7.69	1800	6.77	7.00	7.57	5.49	6.18	6.73			
Cc1cc(C#N)cc(C)c1Oc1nc(Nc2ccc(C#N)cc2)ncc1C#CC(=O)NCCOCCO	11	7.98	78		9380		890					6.09				
Cc1cc(C#N)cc(C)c1Oc1nc(Nc2ccc(C#N)cc2)ncc1SCC(=O)NCCCN1CCOCC1	61	8.47	113	7.59		8.56	6930	7.02	7.51	7.42	6.64	6.41	6.95			
COCCNC(=O)C#Cc1cnc(Nc2ccc(C#N)cc2)nc1Oc1c(C)cc(C#N)cc1C	379	8.69	18	8.22	13600	8.63	6650	7.84	8.02	8.20	7.21	7.45	7.72	7.84 (≈ 16.8 µM)	22.8 (≈ 48.9 µM)	8.27 (≈ 17.7 µM)
Cc1cc(C#N)cc(C)c1Oc1nc(Nc2ccc(C#N)cc2)ncc1C#CC(=O)NCCN1CCN(C(=O)OC(C)(C)C)CC1	6	7.74	219		22400		1220					5.40				
C#CCNC(=O)/C=C/c1cnc(Nc2ccc(C#N)cc2)nc1Oc1c(C)cc(C#N)cc1C	109		248				27100									
O=C1Nc2ccc(Cl)cc2[C@@](C#CC2CC2)(C(F)(F)F)O1 [EFAVIRENZ]		8.63		7.48	> 6340			6.70	8.32	8.45	6.81	6.87				
Cc1cc(C#N)cc(C)c1Oc1nc(Nc2ccc(C#N)cc2)ncc1C#CC(=O)NCCN1CCN(S(C)(=O)=O)CC1		7.95	70		4890		440					6.11				
Cc1cc(C#N)cc(C)c1Oc1nc(Nc2ccc(C#N)cc2)ncc1C#CC(=O)NC1CC1	17	8.32	66	6.95	5300	7.88	1110	6.63	7.43	7.83	6.42	6.50	7.28			
Cc1cc(C#N)cc(C)c1Oc1nc(Nc2ccc(C#N)cc2)nc(N)c1Br [ETRAVIRINE]				8.24	> 4590	8.56				8.27	7.77	7.63				
Cc1cc(C#N)cc(C)c1Oc1nc(Nc2ccc(C#N)cc2)ncc1C#CC(=O)NCCN1CCOCC1	> 2	6.92	957		> 240000		> 2000									
